From patent US20150105252A1, “SUBSTITUTED PYRAZOLES AS HERBICIDES” (E I DU PONT DE NEMOURS AND COMPANY, priority 2013, published 2015)

What was measured:
crabgrass, large = assay: Test C postemergence; assay type: in vivo, Digitaria sanguinalis; settings: for Plant response rating (scale of 0 to 100 where 0 is no effect and 100 is complete control), Crabgrass, Large: 31 g ai/ha, visually evaluated after 13 to 15 days; for Crabgrass, Large plant response rating / Plant response rating, Crabgrass, Large: postemergence; for Crabgrass, Large plant response rating: 62 g ai/ha, scale 0 to 100
Method in brief: (§1)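 Seeds sown in loam–sand blend and treated preemergence with test chemicals in non-phytotoxic solvent with surfactant; postemergence plants in peat-based medium, treated at 2–18 cm (1- to 4-leaf stage). Greenhouse 13 to 15 days, then visual rating versus controls, 0 (no effect) to 100 (complete control).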

morningglory = assay: Test C postemergence; assay type: in vivo, Ipomoea coccinea; settings: for Plant response rating (scale of 0 to 100 where 0 is no effect and 100 is complete control), Morningglory: 31 g ai/ha, visually evaluated after 13 to 15 days; for Morningglory plant response rating / Plant response rating, Morningglory: postemergence; for Morningglory plant response rating: 62 g ai/ha, scale 0 to 100
Method in brief: as §1

chickweed = assay: Test C postemergence; assay type: in vivo, Stellaria media; settings: for Plant response rating (scale of 0 to 100 where 0 is no effect and 100 is complete control), Chickweed: 31 g ai/ha, visually evaluated after 13 to 15 days; for Chickweed plant response rating / Plant response rating, Chickweed: postemergence; for Chickweed plant response rating: 62 g ai/ha, scale 0 to 100
Method in brief: as §1

wheat = assay: Test C postemergence; assay type: in vivo, Triticum aestivum
Method in brief: as §1

blackgrass = assay: Test C postemergence; assay type: in vivo, Alopecurus myosuroides; settings: for Plant response rating (scale of 0 to 100 where 0 is no effect and 100 is complete control), Blackgrass: 31 g ai/ha, visually evaluated after 13 to 15 days; for Blackgrass plant response rating / Plant response rating, Blackgrass: postemergence; for Blackgrass plant response rating: 62 g ai/ha, scale 0 to 100
Method in brief: as §1

corn = assay: Test C postemergence; assay type: in vivo, Zea mays; settings: for Plant response rating (scale of 0 to 100 where 0 is no effect and 100 is complete control), Corn: 31 g ai/ha, visually evaluated after 13 to 15 days; for Corn plant response rating / Plant response rating, Corn: postemergence; for Corn plant response rating: 62 g ai/ha, scale 0 to 100
Method in brief: as §1

lambsquarters = assay: Test C preemergence; assay type: in vivo, Chenopodium album
Method in brief: as §1

galium = assay: Test C postemergence; assay type: in vivo, Galium aparine; settings: for Plant response rating (scale of 0 to 100 where 0 is no effect and 100 is complete control), Galium: 31 g ai/ha, visually evaluated after 13 to 15 days; for Galium plant response rating / Plant response rating, Galium: postemergence; for Galium plant response rating: 62 g ai/ha, scale 0 to 100
Method in brief: as §1

ragweed = assay: Test C postemergence; assay type: in vivo, Ambrosia elation
Method in brief: as §1

waterhemp = assay: Test C postemergence; assay type: in vivo, Amaranthus rudis
Method in brief: as §1

ryegrass, Italian = assay: Test C postemergence; assay type: in vivo, Lolium multiflorum
Method in brief: as §1

soybean = assay: Test C postemergence; assay type: in vivo, Glycine max; settings: for Soybean plant response rating / Plant response rating, Soybean: postemergence
Method in brief: as §1

barnyardgrass = assay: Test C postemergence; assay type: in vivo, Echinochloa crus-galli; settings: for Plant response rating (scale of 0 to 100 where 0 is no effect and 100 is complete control), Barnyardgrass: 31 g ai/ha, visually evaluated after 13 to 15 days; for Barnyardgrass plant response rating / Plant response rating, Barnyardgrass: postemergence; for Barnyardgrass plant response rating: 62 g ai/ha, scale 0 to 100
Method in brief: as §1

foxtail, giant = assay: Test C postemergence; assay type: in vivo, Setaria faberii; settings: for Plant response rating (scale of 0 to 100 where 0 is no effect and 100 is complete control), Foxtail, Giant: 31 g ai/ha, visually evaluated after 13 to 15 days; for Foxtail, Giant plant response rating / Plant response rating, Foxtail, Giant: postemergence; for Foxtail, Giant plant response rating: 62 g ai/ha, scale 0 to 100
Method in brief: as §1

[1] = 125 g ai/ha, scale 0 to 100, 0 no effect, 100 complete control
[2] = Postemergence, 31 g ai/ha, visually evaluated after 13 to 15 days
[3] = postemergence, 62 g ai/ha, scale 0 to 100
[4] = postemergence, 125 g ai/ha, scale 0 to 100, 0 no effect, 100 complete control
[5] = preemergence, 31 g ai/ha, visual rating, scale 0 to 100 (0 no effect, 100 complete control), 13 to 15 days
[6] = 250 g ai/ha, scale 0 to 100 (0 no effect, 100 complete control)
[7] = postemergence, 250 g ai/ha, scale 0 to 100 (0 no effect, 100 complete control)

SMILES: CCc1cc(C(=O)NOC(C)C)nn1Cc1ccnc(C(F)(F)F)c1 [Compound 101]
- Plant response rating (scale of 0 to 100), Crabgrass, Large (crabgrass, large; Postemergence, 16 g ai/ha): 5
- Plant response rating (scale of 0 to 100 where 0 is no effect and 100 is complete control), Crabgrass, Large (crabgrass, large; Postemergence): 5
- Crabgrass, Large plant response rating (crabgrass, large): 15
- Plant response rating, Crabgrass, Large (crabgrass, large; [1]): 20
- Plant response rating (scale of 0 to 100), Morningglory (morningglory; Postemergence, 16 g ai/ha): 60
- Plant response rating (scale of 0 to 100 where 0 is no effect and 100 is complete control), Morningglory (morningglory; Postemergence): 60
- Morningglory plant response rating (morningglory): 65
- Plant response rating, Morningglory (morningglory; [1]): 95
- Plant response rating (scale of 0 to 100), Chickweed (chickweed; Postemergence, 16 g ai/ha): 45
- Plant response rating (scale of 0 to 100 where 0 is no effect and 100 is complete control), Chickweed (chickweed; Postemergence): 50
- Chickweed plant response rating (chickweed): 50
- Plant response rating, Chickweed (chickweed; [1]): 50
- Plant response rating (scale of 0 to 100), Wheat (wheat; Postemergence, 16 g ai/ha): 0
- Plant response rating (scale of 0 to 100 where 0 is no effect and 100 is complete control), Wheat (wheat; [2]): 0
- Wheat plant response rating (wheat; [3]): 5
- Plant response rating, Wheat (wheat; [4]): 5
- Plant response rating (scale of 0 to 100), Blackgrass (blackgrass; Postemergence, 16 g ai/ha): 5
- Plant response rating (scale of 0 to 100 where 0 is no effect and 100 is complete control), Blackgrass (blackgrass; Postemergence): 5
- Blackgrass plant response rating (blackgrass): 5
- Plant response rating, Blackgrass (blackgrass; [1]): 15
- Plant response rating (scale of 0 to 100), Corn (corn; Postemergence, 16 g ai/ha): 5
- Plant response rating (scale of 0 to 100 where 0 is no effect and 100 is complete control), Corn (corn; Postemergence): 10
- Corn plant response rating (corn): 10
- Plant response rating, Corn (corn; [1]): 60
- Plant response rating, Lambsquarters (lambsquarters; Preemergence, 16 g ai/ha, scale 0 to 100): 85
- Lambsquarters plant response rating (lambsquarters; [5]): 85
- Plant response rating, Lambsquarters (lambsquarters; preemergence, 62 g ai/ha, 13 to 15 days, scale 0 to 100, 0 = no effect, 100 = complete control): 85
- Lambsquarters plant response rating (lambsquarters; preemergence, 125 g ai/ha, scale 0 to 100, 0 is no effect, 100 is complete control): 95
- Plant response rating (scale of 0 to 100), Galium (galium; Postemergence, 16 g ai/ha): 20
- Plant response rating (scale of 0 to 100 where 0 is no effect and 100 is complete control), Galium (galium; Postemergence): 35
- Galium plant response rating (galium): 50
- Plant response rating, Galium (galium; [1]): 55
- Plant response rating (scale of 0 to 100), Ragweed (ragweed; Postemergence, 16 g ai/ha): 15
- Plant response rating (scale of 0 to 100 where 0 is no effect and 100 is complete control), Ragweed (ragweed; [2]): 15
- Ragweed plant response rating (ragweed; [3]): 20
- Plant response rating, Ragweed (ragweed; [4]): 75
- Plant response rating (scale of 0 to 100), Waterhemp (waterhemp; Postemergence, 16 g ai/ha): 10
- Plant response rating (scale of 0 to 100 where 0 is no effect and 100 is complete control), Waterhemp (waterhemp; [2]): 30
- Waterhemp plant response rating (waterhemp; [3]): 35
- Plant response rating, Waterhemp (waterhemp; [4]): 75
- Plant response rating (scale of 0 to 100), Ryegrass, Italian (ryegrass, Italian; Postemergence, 16 g ai/ha): 5
- Plant response rating (scale of 0 to 100 where 0 is no effect and 100 is complete control), Ryegrass, Italian (ryegrass, Italian; [2]): 5
- Ryegrass, Italian plant response rating (ryegrass, Italian; [3]): 5
- Plant response rating, Ryegrass, Italian (ryegrass, Italian; [4]): 10
- Plant response rating (scale of 0 to 100), Soybean (soybean; Postemergence, 16 g ai/ha): 15
- Plant response rating (scale of 0 to 100 where 0 is no effect and 100 is complete control), Soybean (soybean; [2]): 20
- Soybean plant response rating (soybean; 62 g ai/ha, scale 0 to 100): 25
- Plant response rating, Soybean (soybean; [1]): 40
- Plant response rating (scale of 0 to 100), Barnyardgrass (barnyardgrass; Postemergence, 16 g ai/ha): 5
- Plant response rating (scale of 0 to 100 where 0 is no effect and 100 is complete control), Barnyardgrass (barnyardgrass; Postemergence): 5
- Barnyardgrass plant response rating (barnyardgrass): 5
- Plant response rating, Barnyardgrass (barnyardgrass; [1]): 5
- Plant response rating (scale of 0 to 100), Foxtail, Giant (foxtail, giant; Postemergence, 16 g ai/ha): 10
- Plant response rating (scale of 0 to 100 where 0 is no effect and 100 is complete control), Foxtail, Giant (foxtail, giant; Postemergence): 10
- Foxtail, Giant plant response rating (foxtail, giant): 30
- Plant response rating, Foxtail, Giant (foxtail, giant; [1]): 65

SMILES: CCOc1cc(C(=O)NC2CC2)nn1Cc1ccnc(C(F)(F)F)c1 [Compound 189]
- Plant response rating (scale of 0 to 100 where 0 is no effect and 100 is complete control), Crabgrass, Large (crabgrass, large; Postemergence): 5
- Crabgrass, Large plant response rating (crabgrass, large): 5
- Plant response rating, Crabgrass, Large (crabgrass, large; [6]): 90
- Plant response rating, Crabgrass, Large (crabgrass, large; [1]): 65
- Plant response rating (scale of 0 to 100 where 0 is no effect and 100 is complete control), Morningglory (morningglory; Postemergence): 75
- Morningglory plant response rating (morningglory): 80
- Plant response rating, Morningglory (morningglory; [6]): 98
- Plant response rating, Morningglory (morningglory; [1]): 95
- Plant response rating (scale of 0 to 100 where 0 is no effect and 100 is complete control), Chickweed (chickweed; Postemergence): 80
- Chickweed plant response rating (chickweed): 80
- Plant response rating, Chickweed (chickweed; [6]): 90
- Plant response rating, Chickweed (chickweed; [1]): 85
- Plant response rating, Wheat (wheat; [7]): 15
- Plant response rating (scale of 0 to 100 where 0 is no effect and 100 is complete control), Blackgrass (blackgrass; Postemergence): 5
- Blackgrass plant response rating (blackgrass): 5
- Plant response rating, Blackgrass (blackgrass; [6]): 50
- Plant response rating, Blackgrass (blackgrass; [1]): 10
- Plant response rating (scale of 0 to 100 where 0 is no effect and 100 is complete control), Corn (corn; Postemergence): 5
- Corn plant response rating (corn): 10
- Plant response rating, Corn (corn; [6]): 60
- Plant response rating, Corn (corn; [1]): 10
- Lambsquarters plant response rating (lambsquarters; [5]): 98
- Lambsquarters plant response rating (lambsquarters; preemergence, 62 g ai/ha, scale 0 to 100 (0 no effect, 100 complete control), 13 to 15 days): 100
- Plant response rating, Lambsquarters (lambsquarters; preemergence, 125 g ai/ha, 13 to 15 days, scale 0 to 100, 0 = no effect, 100 = complete control): 100
- Lambsquarters plant response rating (lambsquarters; preemergence, 250 g ai/ha, scale 0 to 100, 0 is no effect, 100 is complete control): 100
- Plant response rating (scale of 0 to 100 where 0 is no effect and 100 is complete control), Galium (galium; Postemergence): 80
- Galium plant response rating (galium): 80
- Plant response rating, Galium (galium; [6]): 90
- Plant response rating, Galium (galium; [1]): 90
- Plant response rating, Ragweed (ragweed; [7]): 90
- Plant response rating, Ragweed (ragweed; [4]): 75
- Plant response rating, Waterhemp (waterhemp; [7]): 90
- Plant response rating, Ryegrass, Italian (ryegrass, Italian; [7]): 40
- Plant response rating, Ryegrass, Italian (ryegrass, Italian; [4]): 5
- Plant response rating, Soybean (soybean; [6]): 95
- Soybean plant response rating (soybean; [1]): 95
- Plant response rating (scale of 0 to 100 where 0 is no effect and 100 is complete control), Barnyardgrass (barnyardgrass; Postemergence): 5
- Barnyardgrass plant response rating (barnyardgrass): 5
- Plant response rating, Barnyardgrass (barnyardgrass; [6]): 55
- Plant response rating, Barnyardgrass (barnyardgrass; [1]): 20
- Plant response rating (scale of 0 to 100 where 0 is no effect and 100 is complete control), Foxtail, Giant (foxtail, giant; Postemergence): 10
- Foxtail, Giant plant response rating (foxtail, giant): 10
- Plant response rating, Foxtail, Giant (foxtail, giant; [6]): 75
- Plant response rating, Foxtail, Giant (foxtail, giant; [1]): 25
